In PubChem BioAssay AID2060599 (Molecular Pharmacology Branch, DTP, NCI, 2025):

Tested on: 817829-284-R-J1-PDC complex spheroids, viability
Test: Anticancer human tumor 817829-284-R-J1-PDC patient-derived colon adenocarcinoma cell line growth inhibition [CLK]
Details: for IC50: curve of first compound; for viability, T/C: stronger effect = lower value
Procedure, shortened: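 Multi-cell-type spheroids combined patient-derived tumor cells with HUVEC endothelial cells and human mesenchymal stem cells. Paired agents were dosed in half-log steps down from about clinical Cmax, or from 10 microM where Cmax was unknown.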

[1] = second compound 0.0316 µM, first compound 0.0316 µM
[2] = second compound 0.0316 µM, first compound 0.1 µM
[3] = second compound 0.0316 µM, first compound 0.316 µM
[4] = second compound 0.0316 µM, first compound 1 µM
[5] = second compound 0.0316 µM, first compound 3.16 µM
[6] = second compound 0.0316 µM, first compound 10 µM
[7] = second compound 0.1 µM, first compound 0.0316 µM
[8] = second compound 0.1 µM, first compound 0.1 µM
[9] = second compound 0.1 µM, first compound 0.316 µM
[10] = second compound 0.1 µM, first compound 1 µM
[11] = second compound 0.1 µM, first compound 3.16 µM
[12] = second compound 0.1 µM, first compound 10 µM
[13] = second compound 0.316 µM, first compound 0.0316 µM
[14] = second compound 0.316 µM, first compound 0.1 µM
[15] = second compound 0.316 µM, first compound 0.316 µM
[16] = second compound 0.316 µM, first compound 1 µM
[17] = second compound 0.316 µM, first compound 3.16 µM
[18] = second compound 0.316 µM, first compound 10 µM
[19] = second compound 1 µM, first compound 0.0316 µM
[20] = second compound 1 µM, first compound 0.1 µM
[21] = second compound 1 µM, first compound 0.316 µM
[22] = second compound 1 µM, first compound 1 µM
[23] = second compound 1 µM, first compound 3.16 µM
[24] = second compound 1 µM, first compound 10 µM
[25] = second compound 3.16 µM, first compound 0.0316 µM
[26] = second compound 3.16 µM, first compound 0.1 µM
[27] = second compound 3.16 µM, first compound 0.316 µM
[28] = second compound 3.16 µM, first compound 1 µM
[29] = second compound 3.16 µM, first compound 3.16 µM
[30] = second compound 3.16 µM, first compound 10 µM
[31] = second compound 10 µM, first compound 0.0316 µM
[32] = second compound 10 µM, first compound 0.1 µM
[33] = second compound 10 µM, first compound 0.316 µM
[34] = second compound 10 µM, first compound 1 µM
[35] = second compound 10 µM, first compound 3.16 µM
[36] = second compound 10 µM, first compound 10 µM
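Note: spheroids exposed to the agents for seven days before readout.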

Question: Which results are given for CC(CO)NC(=O)c1cc(-c2ccc(Cl)cc2)nn(-c2cnn(C)c2)c1=O (stereo unspecified) + CNC(=O)c1ccc(Nc2nc(OC3CCCC3)c3c(-c4ccc5nc(C)oc5c4)c[nH]c3n2)c(OC)c1?
Answer: IC50 (second compound 0.0316 µM): < 31.6 nM; IC50 (second compound 0.1 µM): < 31.6 nM; IC50 (second compound 0.316 µM): < 31.6 nM; IC50 (second compound 1 µM): < 31.6 nM; IC50 (second compound 3.16 µM): < 31.6 nM; IC50 (second compound 10 µM): < 31.6 nM; viability, T/C [1]: 38.7%; viability, T/C [2]: 34.8%; viability, T/C [3]: 32.9%; viability, T/C [4]: 31%; viability, T/C [5]: 28.5%; viability, T/C [6]: 23.4%; viability, T/C [7]: 24.2%; viability, T/C [8]: 23.8%; viability, T/C [9]: 27.7%; viability, T/C [10]: 21.3%; viability, T/C [11]: 39.8%; viability, T/C [12]: 21.4%; viability, T/C [13]: 27.4%; viability, T/C [14]: 29.7%; viability, T/C [15]: 24.1%; viability, T/C [16]: 24.7%; viability, T/C [17]: 16.1%; viability, T/C [18]: 19.2%; viability, T/C [19]: 14.1%; viability, T/C [20]: 36.8%; viability, T/C [21]: 16%; viability, T/C [22]: 16.2%; viability, T/C [23]: 15.8%; viability, T/C [24]: 10.7%; viability, T/C [25]: 22.3%; viability, T/C [26]: 20.2%; viability, T/C [27]: 18.7%; viability, T/C [28]: 17.9%; viability, T/C [29]: 18.6%; viability, T/C [30]: 19.4%; viability, T/C [31]: 24.3%; viability, T/C [32]: 16.7%; viability, T/C [33]: 41.6%; viability, T/C [34]: 18.7%; viability, T/C [35]: 14.1%; viability, T/C [36]: 16.8%

Question: For CCCS(=O)(=O)Nc1ccc(F)c(C(=O)c2c[nH]c3ncc(-c4ccc(Cl)cc4)cc23)c1F + CNC(=O)c1ccc(Nc2nc(OC3CCCC3)c3c(-c4ccc5nc(C)oc5c4)c[nH]c3n2)c(OC)c1, which IC50 (second compound 0.0316 µM) is on record?
Answer: < 31.6 nM

Question: What about the IC50 (second compound 0.1 µM) of the same compound?
Answer: < 31.6 nM

Question: And the IC50 (second compound 0.316 µM)?
Answer: < 31.6 nM

Question: And the IC50 (second compound 1 µM)?
Answer: < 31.6 nM

Question: What about the IC50 (second compound 3.16 µM) of the same compound?
Answer: < 31.6 nM

Question: And the IC50 (second compound 10 µM)?
Answer: < 31.6 nM

Question: What about the viability, T/C [1] of the same compound?
Answer: 31.8%

Question: And the viability, T/C [2]?
Answer: 23.5%

Question: What about the viability, T/C [3] of the same compound?
Answer: 33.4%

Question: What about the viability, T/C [4] of the same compound?
Answer: 27%

Question: What about the viability, T/C [5] of the same compound?
Answer: 33%

Question: What about the viability, T/C [6] of the same compound?
Answer: 10.1%

Question: What about the viability, T/C [7] of the same compound?
Answer: 19.1%

Question: What about the viability, T/C [8] of the same compound?
Answer: 16.2%

Question: What about the viability, T/C [9] of the same compound?
Answer: 16.2%

Question: And the viability, T/C [10]?
Answer: 20.5%

Question: And the viability, T/C [11]?
Answer: 21.1%

Question: What about the viability, T/C [12] of the same compound?
Answer: 16.3%

Question: What about the viability, T/C [13] of the same compound?
Answer: 38%

Question: What about the viability, T/C [14] of the same compound?
Answer: 22.6%

Question: What about the viability, T/C [15] of the same compound?
Answer: 18%

Question: What about the viability, T/C [16] of the same compound?
Answer: 15.2%

Question: What about the viability, T/C [17] of the same compound?
Answer: 18.3%

Question: And the viability, T/C [18]?
Answer: 15.7%

Question: What about the viability, T/C [19] of the same compound?
Answer: 17.8%

Question: And the viability, T/C [20]?
Answer: 15%

Question: And the viability, T/C [21]?
Answer: 18.6%

Question: And the viability, T/C [22]?
Answer: 12.8%

Question: And the viability, T/C [23]?
Answer: 11.6%

Question: And the viability, T/C [24]?
Answer: 6.76%

Question: And the viability, T/C [25]?
Answer: 16.4%

Question: And the viability, T/C [26]?
Answer: 15.9%

Question: And the viability, T/C [27]?
Answer: 21.2%

Question: What about the viability, T/C [28] of the same compound?
Answer: 22.2%

Question: And the viability, T/C [29]?
Answer: 9.76%

Question: What about the viability, T/C [30] of the same compound?
Answer: 12.3%

Question: And the viability, T/C [31]?
Answer: 21.7%

Question: What about the viability, T/C [32] of the same compound?
Answer: 17.4%

Question: What about the viability, T/C [33] of the same compound?
Answer: 12%

Question: And the viability, T/C [34]?
Answer: 17.2%

Question: And the viability, T/C [35]?
Answer: 9.32%

Question: And the viability, T/C [36]?
Answer: 5.05%

Question: What does the source list for COC1C=CCC(C)C(C)S(=O)(=O)NC(=O)c2ccc3c(c2)N(CC2CCC21)CC1(CCCc2cc(Cl)ccc21)CO3 (stereo unspecified) + CNC(=O)c1ccc(Nc2nc(OC3CCCC3)c3c(-c4ccc5nc(C)oc5c4)c[nH]c3n2)c(OC)c1?
Answer: IC50 (second compound 0.0316 µM): < 31.6 nM; IC50 (second compound 0.1 µM): < 31.6 nM; IC50 (second compound 0.316 µM): < 31.6 nM; IC50 (second compound 1 µM): < 31.6 nM; IC50 (second compound 3.16 µM): < 31.6 nM; IC50 (second compound 10 µM): < 31.6 nM; viability, T/C [1]: 31.3%; viability, T/C [2]: 51.1%; viability, T/C [3]: 31.1%; viability, T/C [4]: 47.8%; viability, T/C [5]: 45.3%; viability, T/C [6]: 4.06%; viability, T/C [7]: 27.3%; viability, T/C [8]: 26.5%; viability, T/C [9]: 18.7%; viability, T/C [10]: 16.1%; viability, T/C [11]: 7.61%; viability, T/C [12]: 4.67%; viability, T/C [13]: 21.2%; viability, T/C [14]: 31.2%; viability, T/C [15]: 22.6%; viability, T/C [16]: 12.6%; viability, T/C [17]: 6.09%; viability, T/C [18]: 4.97%; viability, T/C [19]: 19.7%; viability, T/C [20]: 23.3%; viability, T/C [21]: 19.9%; viability, T/C [22]: 17.6%; viability, T/C [23]: 6.44%; viability, T/C [24]: 16%; viability, T/C [25]: 19.7%; viability, T/C [26]: 22.5%; viability, T/C [27]: 21.7%; viability, T/C [28]: 17.4%; viability, T/C [29]: 7.34%; viability, T/C [30]: 4.74%; viability, T/C [31]: 27.4%; viability, T/C [32]: 23.8%; viability, T/C [33]: 19.8%; viability, T/C [34]: 13.2%; viability, T/C [35]: 7.33%; viability, T/C [36]: 3.62%
